# Test results taken from patent publication EP0291007A1, “Rhodanine derivative, process for preparing the same and pharmaceutical composition containing the same” (KAKEN PHARMACEUTICAL CO., LTD., priority 1987, dated 1988).
# Marks after values point to notes of the source that are not given here.
# Columns and labels:
# [1] = system: accumulation of sorbitol in nervous tissues; assay: Inhibiting activity of the accumulation of sorbitol in nervous tissues of streptozotocin-diabetic rats; format: in vivo, SD male rats; conditions: single dose 48 h after streptozotocin, sciatic nerve sorbitol 5 hours after administration, mean ± spread
# Procedure: After preliminary breeding SD male rats (6 weeks old) in this laboratory for 5 days, streptozotocin (made by Sigma Chemical Company) was administered intravenously (45 mg/kg body weight) to the rats to destroy β cells of Langerhans' islets in pancreas. Thus, rats suffering from diabetes were obtained.
# After 48 hours from the administration of streptozotocin, the rhodanine derivative suspended in a 5 % aqueous solution of gum arabic was administered orally (100 mg/kg body weight or 25 mg/kg body weight) to the rats suffering from diabetes.
# On the other hand, a 5 % aqueous solution of gum arabic having no rhodanine derivative was administered orally (5 mℓ/kg body weight) to the rats (a control group).
# After 5 hours from the administration, the rats were sacrificed by the decapitation and bled to death. Immidiately, the sciatic nervous tissues of the rats were excised and frozen with dry ice. The excised sciatic nervous tissues were stored at -70°C until the sorbitol amount was measured.
# After the wet weights of nervous tissues were measured, the tissues were homogenized in 1.0 mℓ of distilled water by using a homogenizer, to which 0.2 mℓ of a 4.5 % aqueous solution of barium hydroxide and 0.2 mℓ of a 5 % aqueous solution of zinc sulfate were added. The mixture was centrifuged for 10 minutes at 3,000 rpm to remove a precipitate. Ion exchange resins "Dowex 50 W" (Dow Chemical Co.) and "Duolite A-4" (Sumitomo Chemical Company, Limited.) purchased were added in small amounts to the obtained supernatant to desalt, which was recentrifuged to obtain a supernatant. To 0.5 mℓ of the extract of sorbitol were added 1.0 mt of a 50 mM glycine-sodium hydroxide buffer solution (pH 9.4) containing 0.2 mM nicotinamide adenine dinucleotide (NAD) and 50 µℓ of an enzyme solution containing 83 µg of sorbitol dehydrogenase (commercially available from BOEHRINGER MANNHEIM CORPORATION), and the mixture was reacted at room temperature for one hour. The amount of NADH formed by oxidation of sorbitol was measured by using a spectrofluorimeter and a sorbitol concentration in the extracts was measured. From the obtained results, sorbitol concentrations in nervous tissues (n mole/mg wet weight) were calculated.
# A difference between the sorbitol content of the normal rat (0.12 ± 0.01 n mole/mg) and that of the rat suffering from diabetes (0.81 ± 0.06 n mole/mg) was defined as an amount of sorbitol accumulated in the tissues due to diabetes (hereinafter referred to as "sorbitol amount due to diabetes"). Also, a difference between the sorbitol content of the rat suffering from diabetes (0.81 ± 0.06 n moles/mg) and the sorbitol content of the rat suffering from diabetes which was administered the rhodanine derivative was defined as a lowering of the amount of sorbitol due to administration of the rhodanine derivative (hereinafter referred to as "lowering of sorbitol").
# A lowering percentage (%) was defined as a percentage of the lowering of sorbitol to the sorbitol amount due to diabetes. The lowering percentages of the rhodanine derivatives (Compound Nos. 1-11) are shown in Table 3 (administered 100 mg/kg body weight) and Table 4 (administered 25 mg/kg body weight) with the number of rats suffering from diabetes.
# [2] = system: rats suffering from diabetes; assay: Improving activity of the nerve conduction velocity in diabetic rats (tail nerve, method of Miyoshi); format: in vivo; conditions: 100 mg/kg body weight once daily for 2 weeks, control group 24.5 ± 1.2, normal rat 38.4 ± 2.2
# Procedure: Rats suffering from diabetes for the test were prepared in the same manner as in Example 13.
# From the day after the administration of streptozotocin, each of Compound Nos. 1-11 suspended in a 5 % aqueous solution of gum arabic was administrated to the rats in a dosage of 100 mg/kg body weight once daily for 2 weeks.
# As the control groups, a 5 % aqueous solution of gum aratic having no rhodanine derivative was administered (5 mℓ/kg body weight) in the same manner as above to the rats.
# Two weeks later, the conduction velocity of nerve of the rats was measured in accordance with the method of Miyoshi [Fukuoka Medical Jounal, 62(7), 588 to 603(1971)]. In this test, the nerves of the rats' tails were used as materials studied.
# The rats were anesthetized with pentobarbital (30 to 45 mg/kg body weight, intraperitoneal administration), and then the conduction velocities of nerves were measured in a constant-temperature box having a temperature of 40°C.
# The nerve of rat's tail was pricked with needle electrodes at a portion of about 1 cm from the anus (the first stimulation point) and at a portion of about 5 cm in a distal direction from the first stimulation point (the second stimulation point). Further, the segmental muscle of the rat's tail was pricked with a coaxial needle electrode at a portion of about 5 cm in a distol direction from the second stimulation point. The longitudinal nerve trunk of the rat's tail was stimulated at the first stimulation point and the second stimulation point to record action potentials of the provoked muscle.
# The conduction velocity of nerve was calculated as follows: [formula]
# Also, with respect to the normal rats administered with a 5 % aqueous solution of gum arabic, the conduction velocity of nerve was measured in the same manner as above.
# [3] = system: accumulation of galactitol in red blood cells; assay: Inhibiting activity of the accumulation of galactitol in red blood cells of galactose-fed dogs; format: in vivo, beagle dogs; conditions: 10 mg/kg body weight orally once daily for 3 days; blood 10 hours after galactose 15 g/kg; control group 125 ± 10
# Procedure: Each of Compound Nos. 1-11 was administered orally in a dosage of 10 mg/kg body weight once daily for 3 days with a capsule (administration time: 9 a.m. to 9:30 a.m.) to a male or female beagle dogs (body weight: from 8 to 12 kg). As the control group, the dogs were administered with vacant capsules in the same manner as above. Dog foods containing galactose in an amount of 15 g/kg body weight were given to the dogs immediately after the final administration of the capsule. The dogs completely had eaten the dog foods for 5 to 10 minutes. The blood was collected from the cephalic vein of the dog using heparine sodium after 10 hours from the administration of galactose. The collected blood was centrifuged to give red blood cells. The obtained red blood cells were washed twice with a cold physiological saline solution and were hemolysed in distilled water having an equal volume to the red blood cells.
# After removing protein from the obtained solution, the resulting solution was treated with ion exchange resins, "Dowex 50 W" and "Duolite A-4", desalted and lyophilized. After subjecting to the pre-treatment of galactitol with trimethyl silyl ether (TMS), the amount of galactitol accumulated in the red blood cells was measured by a gas chromatography.
# [4] = system: rats suffering from diabetes; assay: Inhibiting activity of the progress of cataract in diabetic rats (lens opacity score by slit lamp); format: in vivo; conditions: 100 mg/kg body weight orally daily for 5 weeks; average lens score (0-4) of both eyes; control group 1.46 ± 0.12, normal rats 0
# Procedure: Rats suffering from diabetes for the test were produced in the same manner as in Example 13.
# From the day after the administration of streptozotocin, each of Compound Nos. 1-11 suspended in a 5 % aqueous solution of gum arabic was administered orally 100 mg/kg body weight daily for 5 weeks to the rats. As the control group, a 5 % aqueous solution of gum arabic having no rhodanine derivative was administered (5 mℓ/kg body weight) to the rats in the same manner as above.
# After administering streptozotocin, lenses of the rats were observed by using a slit lump (commercially available from KOWA Co., Ltd. under a trade name "Kowa SL-2") every second or third day for 5 weeks, sufficiently keeping the lenses mydriasis with a mydriatic (commercially available from Santen Pharmaceutical Co., Ltd. under the trade name "MYDRIN-P".
# The opaqueness of the lenses was estimated according to the following criteria. Score 0: There was no change in the lenses. […] Score 3: Opacity was observed over the whole of lens' surface and the fundus oculi was not seen as if projected through the lens. Score 4: The nucleus lentis became opaque.
# Also, with respect to the normal rats administered with a 5 % aqueous solution of gum arabic, the opaqueness were estimated in the same manner as above.
# [5] = system: accumulation of sorbitol in nervous tissues; assay: Inhibiting activity of the accumulation of sorbitol in nervous tissues of streptozotocin-diabetic rats; format: in vivo, SD male rats; conditions: comparison compounds with linear alkyl group at 5-position; dose not stated
# Acute toxicity in mice = format: in vivo; conditions: mouse, in vivo; oral, mice observed for 2 weeks; read-out: LD₅₀ (oral)
# Excerpt: (§1) The acute toxicity in mice was examined by using the rhodanine derivatives of compound Nos. 1, 2, 5, 7 and 10.
# male ddY mice = assay: Acute toxicity in mice; format: in vivo; conditions: oral, up to a dose of 2,000 mg/kg body weight, observed for 2 weeks
# Excerpt: as §1
Compound,Lowering percentage (%) ([1]; 25 mg/kg body weight orally),Lowering percentage (%) ([1]; 100 mg/kg body weight orally),Conduction velocity of nerve (m/sec) [2],Amount of galactitol in red blood cells (ng/g hemoglobin) [3],Opaqueness [4],inhibition of the accumulation of sorbitol [5],LD50 at 336 h (Acute toxicity in mice),dead mice (male ddY mice)
"CC(CCCCl)C1SC(=S)N(CC(=O)O)C1=O (stereo not drawn) [Compound No. 4, 3-Carboxymethyl-5-(1-methyl-4-chlorobutyl)-rhodanine]",32.2 ± 4.4 %,60.1 ± 7.3*^3%,37.0 ± 3.5 m/sec,59 ± 6 ng/g hemoglobin,0.68 ± 0.09,–,–,–
"CCC(C)CC1SC(=S)N(CC(=O)O)C1=O (stereo not drawn) [Compound No. 9, 3-Carboxymethyl-5-(2-methylbutyl)rhodanine]",19.0 ± 3.5 %,49.9 ± 6.9*^2%,33.6 ± 2.6 m/sec,69 ± 10 ng/g hemoglobin,0.72 ± 0.11,–,–,–
CCCCCCCC1SC(=S)N(CC(=O)O)C1=O (stereo not drawn) [3-carboxymethyl-5-n-heptylrhodanine],–,–,–,–,–,hardly inhibited the accumulation of sorbitol,–,–
"CC(C)(C)CC1SC(=S)N(CC(=O)O)C1=O (stereo not drawn) [Compound No. 7, 3-Carboxymethyl-5-(2,2-dimethylpropyl)rhodanine]",52.5 ± 3.4 %,80.9 ± 5.8*^3%,38.5 ± 4.0 m/sec,48 ± 3 ng/g hemoglobin,0.32 ± 0.05,–,> 2000 mg/kg,no dead mice were observed
"O=C(O)CN1C(=O)C(CC2CCCCC2)SC1=S (stereo not drawn) [Compound No. 11, 3-Carboxymethyl-5-cyclo-hexylmethylrhodanine]",13.0 ± 2.9 %,27.7 ± 1.6*^1%,31.8 ± 1.3 m/sec,87 ± 13 ng/g hemoglobin,0.90 ± 0.13,–,–,–
"CC(C)C(C)C1SC(=S)N(CC(=O)O)C1=O (stereo not drawn) [Compound No. 2, 3-Carboxymethyl-5-(1,2-dimethylpropyl)-rhodanine]",36.5 ± 4.7 %,68.2 ± 10.6*^3%,36.6 ± 2.7 m/sec,66 ± 5 ng/g hemoglobin,0.61 ± 0.07,–,> 2000 mg/kg,no dead mice were observed
"CCC(CCCl)C1SC(=S)N(CC(=O)O)C1=O (stereo not drawn) [Compound No. 3, 3-Carboxymethyl-5-(1-ethyl-3-chloropropyl)-rhodanine]",34.0 ± 6.2 %,62.4 ± 9.4*^3%,34.2 ± 1.8 m/sec,57 ± 12 ng/g hemoglobin,0.55 ± 0.06,–,–,–
"CCCC(CCC)C1SC(=S)N(CC(=O)O)C1=O (stereo not drawn) [Compound No. 6, 3-Carboxymethyl-5-(1-propylbutyl)rhodanine]",16.1 ± 3.2 %,28.4 ± 7.4*^1%,33.0 ± 3.1 m/sec,86 ± 12 ng/g hemoglobin,0.90 ± 0.12,–,–,–
"CCC(CC)C1SC(=S)N(CC(=O)O)C1=O (stereo not drawn) [Compound No. 1, 3-Carboxymethyl-5-(1-ethylpropyl)rhodanine]",19.8 ± 3.2 %,51.5 ± 4.8*^3%,36.2 ± 3.4 m/sec,82 ± 6 ng/g hemoglobin,0.98 ± 0.06,–,> 2000 mg/kg,no dead mice were observed
"CCCC(CC)C1SC(=S)N(CC(=O)O)C1=O (stereo not drawn) [Compound No. 5, 3-Carboxymethyl-5-(1-ethylbutyl)rhodanine]",15.2 ± 2.1 %,30.9 ± 8.8*^1%,32.4 ± 2.8 m/sec,94 ± 7 ng/g hemoglobin,0.92 ± 0.10,–,> 2000 mg/kg,no dead mice were observed
"CC(C)CCC1SC(=S)N(CC(=O)O)C1=O (stereo not drawn) [Compound No. 8, 3-Carboxymethyl-5-(3-methylbutyl)rhodanine]",12.2 ± 1.8 %,23.0 ± 6.2*^1%,35.2 ± 1.5 m/sec,72 ± 11 ng/g hemoglobin,0.89 ± 0.10,–,–,–
"CCC(CC)CC1SC(=S)N(CC(=O)O)C1=O (stereo not drawn) [Compound No. 10, 3-Carboxymethyl-5-(2-ethylbutyl)rhodanine]",18.2 ± 2.0 %,42.9 ± 7.6*^2%,34.1 ± 4.3 m/sec,90 ± 10 ng/g hemoglobin,0.74 ± 0.12,–,> 2000 mg/kg,no dead mice were observed
